Earlier results in publication PMC12881681 (Molecular Pharmacology, 2025).

Tests used:
[1] = parameters: method as in PMID 26330331; details: mice, oral dosing; cited from earlier work
[2] = ref erlotinib (TARCEVA), package insert, 2016; cited from earlier work
AOX1 = details: zoniporide as AOX substrate; cited from earlier work

For `C#Cc1cccc(Nc2ncnc3cc(OCCOC)c(OCCOC)cc23)c1` [Erlotinib], the elimination half-life [1] is listed as 42 min, the Plasma fu [2] is listed as “e Cmax,u = plasma fu × Cmax. Plasma fu = 0.07, based on erlotinib (TARCEVA), package insert, 2016. For O-desmethylerlotinib and O-didesmethylerlotinib, the fu is assumed to be similar to the parent drug” and the Ki (AOX1) is listed as 720 nM.
